Reference: patent publication US20220211687A1, “USE OF ARIMOCLOMOL IN THE TREATMENT OF NIEMANN PICK DISEASE” (Orphazyme A/S, priority 2020, published 2022)

What was measured:
[1] = test system: Niemann-Pick disease type C (NPC); assay: 5-domain NPCCSS score, 12-month double-blind placebo-controlled phase 2/3 trial; assay type: in vivo, human; conditions: for Responders on 5-domain NPCCSS score at 12 months, %: responder = stable or improved
Method: Patients enrolled in the trial were stratified by use of miglustat at baseline. Patients in both strata were randomized 2:1 to receive arimoclomol or placebo.
Routine clinical care was maintained throughout the trial (including administration of miglustat). Each participant was randomized to receive arimoclomol or placebo three times daily. Arimoclomol was administered orally or by feeding tube at 93-372 mg/day based on the patient's body weight up to the estimated equivalence of 372 mg/day for adults (body weight >55 kg) or of 124 mg three times a day.
(§1) During the 12-month treatment phase, efficacy assessments for the primary endpoint, the 5-domain NPCCSS score, and for the non-disease specific Clinical Global Impression—Improvement scale (CGI-I) scores were performed at baseline and after 3, 6, 9, and 12 months of treatment; all other efficacy and biomarker assessments were performed at baseline and after 6 and 12 months of treatment.
Primary endpoint: The primary endpoint was change from baseline in NPC severity at 12 months as assessed by the 5-domain NPCCSS score, an abbreviated assessment tool originating from the 17 domain NPCCSS score developed by Yanjanin et al., as described herein. The fully validated 5-domain NPCCSS score comprises the domains determined to be most clinically relevant to patients, caregivers, and clinicians: ambulation, cognition, fine motor skills, speech, and swallowing. The total aggregated 5-domain NPCCSS score ranges from 0 to 25, with a higher score indicating more severe clinical impairment.
Subgroup analyses of primary endpoint: NPC is a heterogeneous disease, and patients aged 2 to 18 years present with a large spectrum of disease presentations. The group of children <4 years old includes patients with mild manifestations and patients with aggressive, early fatal disease. As this group is particularly heterogeneous, a subgroup of patients >4 years of age was predefined with the population of study participants.
In the EU, miglustat is indicated for the treatment of progressive neurological manifestations in patients with NPC. However, not all patients are candidates for miglustat treatment, and it is recommended that the benefit of treatment should be evaluated on a regular basis (e.g., every six months). An analysis of the subpopulation of patients receiving miglustat was prespecified to elucidate the effect of arimoclomol in patients on background miglustat treatment. Overall, the subgroups of patients ≥4 years of age, and patients on miglustat treatment, were expected to be more homogeneous with respect to baseline demographics and disease characteristics and therefore more suitable for comparison.
In the first post hoc analysis, subjects with double functional null mutations in NPC1 (NPC1 genotype of Functional Null/Functional Null) were excluded.

[2] = test system: Niemann-Pick disease type C (NPC); assay: Clinical Global Impression-Improvement scale (CGI-I) responder analysis, phase 2/3 trial; assay type: in vivo, human
Method: as §1
CGI-I: the CGI-I was originally developed as a research rating tool to assess psychiatric diseases (see Busner J, Targum SD. The clinical global impressions scale: applying a research tool in clinical practice. Psychiatry (Edgmont). 2007;4:28-37, incorporated herein by reference in its entirety). It provides the clinician's impression of improvement (or worsening) of a person's condition at the current visit compared with baseline on a 7-point scale ranging from 1 (very much improved) to 7 (very much worse). In the present trial, CGI-I was performed after clinical examination and patient interviews; the same investigator was instructed to perform CGI-I assessments throughout the trial for a given patient.

SMILES: [O-][n+]1cccc(/C(Cl)=N/OC[C@H](O)CN2CCCCC2)c1 [Arimoclomol, N-[(2R)-2-hydroxy-3-piperidin-1-ylpropoxy]-1-oxidopyridin-1-ium-3-carboximidoyl chloride]
- Change in 5-domain NPCCSS score from baseline at 12 months, mean change ([1]; individuals aged ≥4 years, arimoclomol group n=30 (24 at 12 months)): 0.44
- Change in 5-domain NPCCSS score from baseline at 12 months, Arimoclomol vs placebo: Difference ([1]; individuals aged ≥4 years, p=0.0190): −1.75
- Relative reduction in annual disease progression ([1]; individuals aged ≥4 years, vs placebo): 80%
- Change in 5-domain NPCCSS score from baseline at 12 months, mean change ([1]; individuals not receiving miglustat, arimoclomol group n=8 (3 at 12 months)): 4.2
- Change in 5-domain NPCCSS score from baseline at 12 months, Arimoclomol vs placebo: Difference ([1]; individuals not receiving miglustat, p=0.2835): 2.21
- Change in 5-domain NPCCSS score from baseline at 12 months, mean change ([1]; individuals receiving miglustat, arimoclomol group n=26 (22 at 12 months)): −0.01
- Change in 5-domain NPCCSS score from baseline at 12 months, Arimoclomol vs placebo: Difference ([1]; individuals receiving miglustat, p=0.0074): −2.01
- Relative reduction in annual disease progression ([1]; individuals receiving miglustat, vs placebo): 101%
- Relative reduction in annual disease progression ([1]; overall population, 5-domain NPCCSS, vs placebo): 63%
- Change in 5-domain NPCCSS score from baseline at 12 months, mean change ([1]; overall population, arimoclomol group n=34 (27 at 12 months), 93-372 mg/day by body weight, three times daily): 0.80
- Change in 5-domain NPCCSS score from baseline at 12 months, Arimoclomol vs placebo: Difference ([1]; overall population, p=0.0537): −1.34
- Responders on 5-domain NPCCSS score at 12 months, Arimoclomol vs placebo: Difference ([1]; p=0.5456): 12.5%
- Proportion worsening on 5-domain NPCCSS score at 12 months, Arimoclomol vs placebo: Difference ([1]; p=1.0000): 0.37%
- Progression of NPC in prespecified subgroups (MMRM on 5-domain NPCCSS) ([1]; patients >4 years old (n=44) and patients concomitantly receiving miglustat (n=39), p<0.05): slowed progression of NPC
- Relative reduction in annual disease progression ([1]; post hoc, baseline ASIS within 0.5 and 2): 93%
- Change in 5-domain NPCCSS score, Arimoclomol vs placebo: Difference ([1]; post hoc, baseline ASIS within 0.5 and 2 (n=21), p=0.0536): −2.39
- Change in 5-domain NPCCSS score from baseline at 12 months, mean change ([1]; post hoc, baseline ASIS within 0.5 and 2, arimoclomol n=13): 0.19
- Relative reduction in annual disease progression ([1]; post hoc, excluding individuals with double functional null mutations): 77%
- Change in 5-domain NPCCSS score from baseline at 12 months, mean change ([1]; post hoc, excluding individuals with double functional null mutations, arimoclomol n=31): 0.47
- Change in 5-domain NPCCSS score, Arimoclomol vs placebo: Difference ([1]; post hoc, excluding individuals with double functional null mutations, p=0.0242): −1.56
- Responders on 5-domain NPCCSS score at 12 months, % ([1]; arimoclomol group n=34): (50.0) %
- Responders on 5-domain NPCCSS score at 12 months, % ([1]; arimoclomol group n=34, listed as arimoclomol): 50.0%
- Time to worsening on 5-domain NPCCSS score ([1]; time until worsened by 2 points vs baseline, arimoclomol group): 3.68 months
- Proportion worsening on 5-domain NPCCSS score at 12 months, % ([1]; worsening by 2 points vs baseline, arimoclomol group n=34): (44.1) %
- Responders on CGI-I at 12 months, Arimoclomol vs placebo: Difference ([2]; p=1.0000): 2.6%
- Responders on CGI-I at 12 months, % ([2]; responder = stable or improved, arimoclomol group): (58.8) %
